Test results taken from PubChem BioAssay AID1918930 (Molecular Pharmacology Branch, DTP, NCI, 2023).

System: 233499-124-R-J3-PDC complex spheroid viability, % test/control
Experiment: Anticancer human tumor 233499-124-R-J3-PDC patient-derived colon adenocarcinoma cell line growth inhibition
Conditions: for viability, T/C: stronger effect = lower value
How it was run: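 Drug combinations with the LSD1 inhibitor iadademstat tested on tumor cells co-cultured as spheroids with endothelial cells and mesenchymal stem cells. Concentrations descended in half-log increments from clinical Cmax or 10 microM.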

[1] = curve of first compound, second compound 0.1 µM
[2] = curve of first compound, second compound 0.316 µM
[3] = curve of first compound, second compound 1 µM
[4] = curve of first compound, second compound 3.16 µM
[5] = curve of first compound, second compound 10 µM
[6] = second compound 0.1 µM, first compound 0.00316 µM
[7] = second compound 0.1 µM, first compound 0.01 µM
[8] = second compound 0.1 µM, first compound 0.0316 µM
[9] = second compound 0.1 µM, first compound 0.1 µM
[10] = second compound 0.316 µM, first compound 0.00316 µM
[11] = second compound 0.316 µM, first compound 0.01 µM
[12] = second compound 0.316 µM, first compound 0.0316 µM
[13] = second compound 0.316 µM, first compound 0.1 µM
[14] = second compound 1 µM, first compound 0.00316 µM
[15] = second compound 1 µM, first compound 0.01 µM
[16] = second compound 1 µM, first compound 0.0316 µM
[17] = second compound 1 µM, first compound 0.1 µM
[18] = second compound 3.16 µM, first compound 0.00316 µM
[19] = second compound 3.16 µM, first compound 0.01 µM
[20] = second compound 3.16 µM, first compound 0.0316 µM
[21] = second compound 3.16 µM, first compound 0.1 µM
[22] = second compound 10 µM, first compound 0.00316 µM
[23] = second compound 10 µM, first compound 0.01 µM
[24] = second compound 10 µM, first compound 0.0316 µM
[25] = second compound 10 µM, first compound 0.1 µM
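Further: spheroids exposed to agents for one week before readout.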

SMILES | IC50 [1] [µM] | IC50 [2] [µM] | IC50 [3] [µM] | IC50 [4] [µM] | IC50 [5] [µM] | viability, T/C [6] [%] | viability, T/C [7] [%] | viability, T/C [8] [%] | viability, T/C [9] [%] | viability, T/C [10] [%] | viability, T/C [11] [%] | viability, T/C [12] [%] | viability, T/C [13] [%] | viability, T/C [14] [%] | viability, T/C [15] [%] | viability, T/C [16] [%] | viability, T/C [17] [%] | viability, T/C [18] [%] | viability, T/C [19] [%] | viability, T/C [20] [%] | other results
Nc1ncn(C2CC(O)C(CO)O2)c(=O)n1 (stereo unspecified) + NC1CC1c1ccc(-c2cccc(O)c2)cc1 | > 1 | > 1 | > 1 | > 1 | > 1 | 101 | 98.9 | 86.8 | 81.2 | 120 | 99.5 | 92.2 | 75 | 104 | 89.9 | 72.9 | 83.7 | 82.5 | 93.2 | 80.4 | viability, T/C (second compound 0.1 µM, first compound 0.316 µM): 89.6%; viability, T/C (second compound 0.1 µM, first compound 1 µM): 108%; viability, T/C (second compound 0.316 µM, first compound 0.316 µM): 96.9%; viability, T/C (second compound 0.316 µM, first compound 1 µM): 87.6%; viability, T/C (second compound 1 µM, first compound 0.316 µM): 69.1%; viability, T/C (second compound 1 µM, first compound 1 µM): 88.4%; viability, T/C [21]: 74.4%; viability, T/C (second compound 3.16 µM, first compound 0.316 µM): 74.6%; viability, T/C (second compound 3.16 µM, first compound 1 µM): 92%; viability, T/C [22]: 80.5%; viability, T/C [23]: 83.9%; viability, T/C [24]: 80.5%; viability, T/C [25]: 60.9%; viability, T/C (second compound 10 µM, first compound 0.316 µM): 58.1%; viability, T/C (second compound 10 µM, first compound 1 µM): 90.9%
Cn1ncnc1C1c2n[nH]c(=O)c3cc(F)cc(c23)NC1c1ccc(F)cc1 (stereo unspecified) + NC1CC1c1ccc(-c2cccc(O)c2)cc1 | > 0.1 | > 0.1 | > 0.1 | > 0.1 | > 0.1 | 105 | 91.2 | 95.4 | 84.4 | 128 | 98.1 | 102 | 89.3 | 87.5 | 74.2 | 89.5 | 88.5 | 90.2 | 76.5 | 76.7 | viability, T/C (second compound 0.1 µM, first compound 0.000316 µM): 106%; viability, T/C (second compound 0.1 µM, first compound 0.001 µM): 105%; viability, T/C (second compound 0.316 µM, first compound 0.000316 µM): 89.1%; viability, T/C (second compound 0.316 µM, first compound 0.001 µM): 108%; viability, T/C (second compound 1 µM, first compound 0.000316 µM): 85.7%; viability, T/C (second compound 1 µM, first compound 0.001 µM): 83.1%; viability, T/C (second compound 3.16 µM, first compound 0.000316 µM): 89.9%; viability, T/C (second compound 3.16 µM, first compound 0.001 µM): 96%; viability, T/C [21]: 78.5%; viability, T/C (second compound 10 µM, first compound 0.000316 µM): 74.7%; viability, T/C (second compound 10 µM, first compound 0.001 µM): 80.6%; viability, T/C [22]: 69.7%; viability, T/C [23]: 70.3%; viability, T/C [24]: 58.7%; viability, T/C [25]: 58.8%
NC1CCC(NC2CC2c2ccccc2)CC1 (stereo unspecified) | – | – | – | – | – | – | – | – | – | – | – | – | – | – | – | – | – | – | – | – | IC50 (compound alone, run of 01/24/2022): > 10 µM
